{"source": "patent US20220169639A1", "about": "(priority 2018, published 2022)"}
{"system": "HBeAg (surrogate marker for cccDNA) in HepDES19 cells", "assay": "Engineered HepDES19 primary screen assay (HBeAg ELISA)", "assay_type": "cell-based, HBV", "conditions": "Hepatitis B virus, 120 h, HBeAg in culture supernatant, 5 days incubation, read-out: IC50 (HepDES19 primary screen assay, inhibition of extracellular HBeAg level)", "source_text": "The assay was employed to screen for cccDNA inhibitors. HepDES19 is a cccDNA-producing cell line. In this cell line, HBeAg in the cell culture supernatant as surrogate marker, as HBeAg production depends on cccDNA level and activity. HepDES19 is an engineered cell line which contains a 1.1 unit length HBV genome, and pgRNA transcription from the transgene is controlled by Tetracycline (Tet). In the absence of Tet, pgRNA transcription will be induced, but HBV e antigen (HBeAg) could not be produced from this pgRNA due to very short leader sequence before the HBeAg start codon and the start codon is disrupted. Only after cccDNA is formed, the missing leader sequence and start codon mutation would be restored from the 3′-terminal redundancy of pgRNA, and then HBeAg could be synthesized. Therefore, HBeAg could be used as a surrogate marker for cccDNA (Zhou, T. et al., Antiviral Res. (2006), 72(2), 116-124; Guo, H. et al., J. Virol. (2007), 81(22), 12472-12484).\nHepDES19 cells were seeded at 2×10^6 cells per T150 flask and cultured with the culture medium (Dulbecco's Modified Eagle Medium: Nutrient Mixture F-12 [DMEM-F12, Gibco Cat. 11320-82], 10% Fetal Bovine Serum [FBS, Clontech Cat. 631101], 0.1 mM Non-Essential Amino Acids Solution [NEAA, Gibco Cat. 11140-050], 50 μg/mL Penicillin-Streptomycin [PS, Invitrogen Cat. 15140-163], 500 μg/mL Geneticin [G418, Invitrogen Cat. 10131-027]) containing 3 μg/mL Tet (Sigma, Cat. 87128) for 5 days. Cells were then seeded at 4×10^6 cells per T150 in the same culture medium as described above in the absence of Tet for 8 days. Cells were then harvested and frozen at density of 2×10^6 cells per mL. For compound testing, the frozen cells were thawed and seeded into 96-well plates at a density of 6×10^4 cells per well. At 24 hours after seeding, half log serial dilutions of compounds made with Dimethyl sulfoxide (DMSO, Sigma, Cat. D2650) were further diluted with the same culture medium as described above before they were added to the cells to reach desired final compound concentrations and 1% DMSO concentration. Plates were then incubated at 37° C. for another 5 days before measurement of HBeAg level and cell viability. Intracellular HBeAg level were measured with enzyme-linked immunosorbent assay (ELISA) kit (Shanghai Kehua Diagnostic Medical Products Co., Ltd). Cell viability was assessed using Cell Counting Kit-8 (DonJindo, Cat. CK04-20). IC50 values were derived from the dose-response curve using 4 parameter logistic curve fit method.\nThe compounds of the present invention were tested for their capacity to inhibit extracellular HBeAg level as described herein.", "units": {"IC50": "µM"}}
{"smiles": "O=C(O)C(=O)N1CC[C@@H](Oc2cc(C(F)(F)F)ccc2-c2cc(=O)c3cccc(Cl)c3o2)C1", "note": "[Example 130]", "IC50": 4.82}
{"smiles": "O=c1cc(-c2ccccc2O)oc2cc(O)ccc12", "note": "[Example F-1, 7-hydroxy-2-(2-hydroxyphenyl)chromen-4-one, reference compound]", "IC50": "> 50"}
{"smiles": "NS(=O)(=O)NCCOc1cc(C(F)(F)F)ccc1-c1cc(=O)c2cccc(Cl)c2o1", "note": "[Example 159, 8-chloro-4-oxo-2-[2-[2-(sulfamoylamino)ethoxy]-4-(trifluoromethyl)phenyl]chromene]", "IC50": 0.83}
{"smiles": "Cc1ccc(-c2cc(=O)c3cccc(Cl)c3o2)c(OCCNC(=O)C(=O)O)c1", "note": "[Example 121]", "IC50": 4.25}
{"smiles": "C[C@@H]1CN(CCOc2cc(Br)ccc2-c2cc(=O)c3cccc(Cl)c3o2)C[C@H]1C(=O)O", "note": "[Example 024, (3S,4S)-1-[2-[5-bromo-2-(8-chloro-4-oxo-chromen-2-yl)phenoxy]ethyl]-4-methyl-pyrrolidine-3-carboxylic acid]", "IC50": 1.04}
{"smiles": "O=C(O)C1CC(N(CCCOc2cc(C(F)(F)F)ccc2-c2cc(=O)c3cccc(Cl)c3o2)S(=O)(=O)C2CC2)C1", "note": "(stereo not shown) [Example 139, 3-[3-[2-(8-chloro-4-oxo-chromen-2-yl)-5-(trifluoromethyl)phenoxy]propyl-cyclopropylsulfonyl-amino]cyclobutanecarboxylic acid]", "IC50": 10.2}
{"smiles": "Cc1cc(-c2cc(=O)c3cccc(Cl)c3o2)c(OCCCNC2CC(C(=O)O)C2)cc1Cl", "note": "(stereo not shown) [Example 046, 3-[3-[5-chloro-2-(8-chloro-4-oxo-chromen-2-yl)-4-methyl-phenoxy]propylamino]cyclobutanecarboxylic acid]", "IC50": 4.37}
{"smiles": "Cc1ccc(-c2cc(=O)c3cccc(Cl)c3o2)c(O[C@H]2CCN(C(=O)C(=O)O)C2)c1", "note": "[Example 132]", "IC50": 0.35}
{"smiles": "O=C(O)C1CCN(CCOc2cc(Br)ccc2-c2cc(=O)c3cccc(Cl)c3o2)C1", "note": "(stereo not shown) [Example 021, 1-[2-[5-bromo-2-(8-chloro-4-oxo-chromen-2-yl)phenoxy]ethyl]pyrrolidine-3-carboxylic acid]", "IC50": 0.18}
{"smiles": "Cc1ccc(-c2cc(=O)c3cccc(Cl)c3o2)c(OCCCNC(=O)C(=O)O)c1", "note": "[Example 120]", "IC50": 2.96}
{"smiles": "COc1ccc(-c2cc(=O)c3cccc(Cl)c3o2)c(OCCNC(=O)C(=O)O)c1", "note": "[Example 111, 2-[2-[2-(8-chloro-4-oxo-chromen-2-yl)-5-methoxy-phenoxy]ethylamino]-2-oxo-acetic acid]", "IC50": 0.18}
{"smiles": "COc1cc(C)cc(OCCNC(=O)C(=O)O)c1-c1cc(=O)c2cccc(Cl)c2o1", "note": "[Example 118]", "IC50": 1.98}
{"smiles": "O=C(O)CNCCOc1cc(C(F)(F)F)ccc1-c1cc(=O)c2cccc(Cl)c2o1", "note": "[Example 123]", "IC50": 5.11}
{"smiles": "CC(C)COc1ccc(-c2cc(=O)c3cccc(Cl)c3o2)c(OCCN2CC[C@H](C(=O)O)C2)c1", "note": "[Example 040, (3S)-1-[2-[2-(8-chloro-4-oxo-chromen-2-yl)-5-isobutoxy-phenoxy]ethyl]pyrrolidine-3-carboxylic acid]", "IC50": 9.06}
{"smiles": "O=C(O)C1CC(NCCOc2cc(C(F)(F)F)ccc2-c2cc(=O)c3cccc(Cl)c3o2)C1", "note": "(stereo not shown) [Example 038, 3-[2-[2-(8-chloro-4-oxo-chromen-2-yl)-5-(trifluoromethyl)phenoxy]ethylamino]cyclobutanecarboxylic acid]", "IC50": 7.24}
{"smiles": "Cc1ccc(-c2cc(=O)c3cccc(Cl)c3o2)c(OCCNC(=O)C(=O)N2CC[C@H](O)C2)c1", "note": "[Example 150, N-[2-[2-(8-chloro-4-oxo-chromen-2-yl)-5-methyl-phenoxy]ethyl]-2-[(3S)-3-hydroxypyrrolidin-1-yl]-2-oxo-acetamide]", "IC50": 12.2}
{"smiles": "CC(C)(COc1cc(C(F)(F)F)ccc1-c1cc(=O)c2cccc(Cl)c2o1)NC(=O)C(=O)O", "note": "[Example 115]", "IC50": 1.04}
{"smiles": "CS(=O)(=O)NC(=O)[C@H]1CCN(CCOc2cc(C(F)(F)F)ccc2-c2cc(=O)c3cccc(Cl)c3o2)C1", "note": "[Example 071, (3S)-1-[2-[2-(8-chloro-4-oxo-chromen-2-yl)-5-(trifluoromethyl)phenoxy]ethyl]-N-methylsulfonyl-pyrrolidine-3-carboxamide]", "IC50": 1.03}
{"smiles": "O=C(O)[C@H]1CCCN1CCCOc1cc(Br)ccc1-c1cc(=O)c2cccc(Cl)c2o1", "note": "[Example 003, (2R)-1-[3-[5-bromo-2-(8-chloro-4-oxo-chromen-2-yl)phenoxy]propyl]pyrrolidine-2-carboxylic acid]", "IC50": 2.41}
{"smiles": "O=C(O)C(=O)NCCOc1cc(Br)ccc1-c1cc(=O)c2cccc(Cl)c2o1", "note": "[Example 113]", "IC50": 0.49}
{"smiles": "O=C(O)C(=O)N1CCN(CCOc2cc(C(F)(F)F)ccc2-c2cc(=O)c3cccc(Cl)c3o2)C1=O", "note": "[Example 162, 2-[3-[2-[2-(8-chloro-4-oxo-chromen-2-yl)-5-(trifluoromethyl)phenoxy]ethyl]-2-oxo-imidazolidin-1-yl]-2-oxo-acetic acid]", "IC50": 0.08}
{"smiles": "CC(C)COc1ccc(-c2cc(=O)c3cccc(Cl)c3o2)c(OCCN2CC[C@@H](C(=O)O)C2)c1", "note": "[Example 039, (3R)-1-[2-[2-(8-chloro-4-oxo-chromen-2-yl)-5-isobutoxy-phenoxy]ethyl]pyrrolidine-3-carboxylic acid]", "IC50": 3.48}
{"smiles": "O=C(O)[C@@H]1CCCN1CCCOc1cc(Br)ccc1-c1cc(=O)c2cccc(Cl)c2o1", "note": "[Example 004, (2S)-1-[3-[5-bromo-2-(8-chloro-4-oxo-chromen-2-yl)phenoxy]propyl]pyrrolidine-2-carboxylic acid]", "IC50": 2.02}
{"smiles": "O=C(O)C(=O)N1CCC(Oc2cc(C(F)(F)F)ccc2-c2cc(=O)c3cccc(Cl)c3o2)CC1", "note": "[Example 129]", "IC50": 4.75}
{"smiles": "Cc1ccc(-c2cc(=O)c3cccc(Cl)c3o2)c(OCCN2CCN(C)C2=O)c1", "note": "[Example 092, 1-[2-[2-(8-chloro-4-oxo-chromen-2-yl)-5-methyl-phenoxy]ethyl]-3-methyl-imidazolidin-2-one]", "IC50": 0.22}
{"smiles": "O=C(O)C(=O)N1CC(Oc2cc(C(F)(F)F)ccc2-c2cc(=O)c3cccc(Cl)c3o2)C1", "note": "[Example 127]", "IC50": 0.08}
{"smiles": "CNS(=O)(=O)NCCCOc1cc(C)ccc1-c1cc(=O)c2cccc(Cl)c2o1", "note": "[Example 107]", "IC50": 2.71}
{"smiles": "Cc1ccc(-c2cc(=O)c3cccc(Cl)c3o2)c(OCCNC(=O)NCC(=O)O)c1", "note": "[Example 154]", "IC50": 1.43}
{"smiles": "CN(CCCOc1cc(C(F)(F)F)ccc1-c1cc(=O)c2cccc(Cl)c2o1)CC(=O)O", "note": "[Example 134, 2-[3-[2-(8-chloro-4-oxo-chromen-2-yl)-5-(trifluoromethyl)phenoxy]propyl-methyl-amino]acetic acid]", "IC50": 8.17}
{"smiles": "Cc1ccc(-c2cc(=O)c3cccc(Cl)c3o2)c(OCCNC2CC(C(=O)O)C2)c1", "note": "(stereo not shown) [Example 053, 3-[2-[2-(8-chloro-4-oxo-chromen-2-yl)-5-methyl-phenoxy]ethylamino]cyclobutanecarboxylic acid]", "IC50": 0.1}
{"smiles": "Cc1cc(F)c(-c2cc(=O)c3cccc(Cl)c3o2)c(OCCNC(=O)C(=O)O)c1", "note": "[Example 112]", "IC50": 0.49}
{"smiles": "Cc1ccc(-c2cc(=O)c3cccc(Cl)c3o2)c(OCCNC(C)(C)C(=O)O)c1", "note": "[Example 058, 2-[2-[2-(8-chloro-4-oxo-chromen-2-yl)-5-methyl-phenoxy]ethylamino]-2-methyl-propanoic acid]", "IC50": 3.41}
{"smiles": "Cc1ccc(-c2cc(=O)c3cccc(Cl)c3o2)c(OCCN2CC(C(=O)O)C2)c1", "note": "[Example 054, 1-[2-[2-(8-chloro-4-oxo-chromen-2-yl)-5-methyl-phenoxy]ethyl]azetidine-3-carboxylic acid]", "IC50": 0.24}
{"smiles": "CC(C)[C@@H](NCCOc1cc(C(F)(F)F)ccc1-c1cc(=O)c2cccc(Cl)c2o1)C(=O)O", "note": "[Example 036, (2R)-2-[2-[2-(8-chloro-4-oxo-chromen-2-yl)-5-(trifluoromethyl)phenoxy]ethylamino]-3-methyl-butanoic acid]", "IC50": 2.03}
{"smiles": "Cc1cc(-c2cc(=O)c3cccc(Cl)c3o2)c(OCCN2CC(C(=O)O)C2)cc1Cl", "note": "[Example 061, 1-[2-[5-chloro-2-(8-chloro-4-oxo-chromen-2-yl)-4-methyl-phenoxy]ethyl]azetidine-3-carboxylic acid]", "IC50": 5.71}
{"smiles": "C[C@@H]1NC(=O)N(CCOc2cc(C(F)(F)F)ccc2-c2cc(=O)c3cccc(Cl)c3o2)C1=O", "note": "[Example 155]", "IC50": 5.11}
{"smiles": "COc1ccc(-c2cc(=O)c3cccc(Cl)c3o2)c(OCCNC(=O)C(N)=O)c1", "note": "[Example 147, N′-[2-[2-(8-chloro-4-oxo-chromen-2-yl)-5-methoxy-phenoxy]ethyl]oxamide]", "IC50": 1.2}
